Where a name gives a salt, the structure may show the parent alone. Bridge positions count the residues as written; N and C are the ends. Peptide text beside a SMILES is read from it.
Target: SARS-CoV-2 Mac1 (Severe acute respiratory syndrome coronavirus 2, UniProt P0DTD1)
Test: biochemical
Settings: for %inhibition: 100 µM, inhibitor; for inhibition at 100 µM: read-out: %inhibition

## Cc1cc(NS(=O)(=O)c2ccc(N)cc2)no1 [Sulfamethoxazole sodium]
  %inhibition: 0%

## Cc1cc(NS(=O)(=O)c2ccc(N)cc2)no1 [Sulfamethoxazole]
  %inhibition: 24.84%

## COc1ccc(NS(=O)(=O)c2ccc(N)cc2)nn1 [Sulfamethoxypyridazine]
  inhibition at 100 µM: 4.31%

## Nc1ccc(S(N)(=O)=O)cc1 [Sulfanilamide]
  inhibition at 100 µM: 19.9%

## Nc1ccc(S(=O)(=O)Nc2ccnn2-c2ccccc2)cc1 [Sulfaphenazole]
  inhibition at 100 µM: 0%

## Nc1ccc(S(=O)(=O)Nc2ccccn2)cc1 [Sulfapyridine]
  inhibition at 100 µM: 10.7%

## O=C(O)c1cc(/N=N/c2ccc(S(=O)(=O)Nc3ccccn3)cc2)ccc1O [Sulfasalazine]
  inhibition at 100 µM: 0%

## Nc1ccc(S(=O)(=O)Nc2nccs2)cc1 [Sulfathiazole]
  inhibition at 100 µM: 5.37%

## Cc1noc(NS(=O)(=O)c2ccc(N)cc2)c1C [Sulfisoxazole]
  inhibition at 100 µM: 20.4%

## COc1cc(S(=O)(=O)O)ccc1O [Sulfogaiacol]
  inhibition at 100 µM: 0%

## CC1=C(CC(=O)O)c2cc(F)ccc2/C1=C\c1ccc([S+](C)[O-])cc1 (stereo not drawn) [Sulindac]
  inhibition at 100 µM: 4.16%

## COc1cc(O)c(C(=O)c2ccccc2)cc1S(=O)(=O)O [Sulisobenzone]
  inhibition at 100 µM: 4.13%

## COc1cc(NS(=O)(=O)c2ccc(N)cc2)nc(OC)n1 [Sulphadimethoxine]
  inhibition at 100 µM: 0%

## CCN1CCCC1CNC(=O)c1cc(S(N)(=O)=O)ccc1OC (stereo not drawn) [Sulpiride]
  inhibition at 100 µM: 0%

## CC1(C)S[C@@H]2[C@H](NC(=O)[C@H](N)c3ccccc3)C(=O)N2[C@H]1C(=O)OCOC(=O)[C@@H]1N2C(=O)C[C@H]2S(=O)(=O)C1(C)C [Sultamicillin]
  inhibition at 100 µM: 8.63%

## CCN(CC)CCNC(=O)c1c(C)[nH]c(/C=C2\C(=O)Nc3ccc(F)cc32)c1C [Sunitinib Malate]
  inhibition at 100 µM: 16.2%

## CCN(CC)CCNC(=O)c1c(C)[nH]c(/C=C2\C(=O)Nc3ccc(F)cc32)c1C [Sunitinib]
  %inhibition: 31.86%

## CC(C(=O)O)c1ccc(C(=O)c2cccs2)cc1 (stereo not drawn) [Suprofen]
  inhibition at 100 µM: 18%

## CNC(=O)c1ccc2cc([C@@]3(O)CCn4cncc43)ccc2c1 [TAK-700 (Orteronel)]
  inhibition at 100 µM: 0%

## Nc1c2c(nc3ccccc13)CCCC2 [Tacrine HCl]
  %inhibition: 0.07061%

## Nc1c2c(nc3ccccc13)CCCC2 [Tacrine hydrochloride hydrate]
  %inhibition: 12.09%

## C=CC[C@@H]1/C=C(\C)C[C@H](C)C[C@H](OC)[C@H]2O[C@@](O)(C(=O)C(=O)N3CCCC[C@H]3C(=O)O[C@H](/C(C)=C/[C@@H]3CC[C@@H](O)[C@H](OC)C3)[C@H](C)[C@@H](O)CC1=O)[C@H](C)C[C@@H]2OC [Tacrolimus (FK506)]
  inhibition at 100 µM: 29.6%

## CN1CC(=O)N2[C@H](c3ccc4c(c3)OCO4)c3[nH]c4ccccc4c3C[C@@H]2C1=O [Tadalafil]
  inhibition at 100 µM: 20.7%

## CC(C)OC(=O)CCC/C=C\C[C@@H]1[C@@H](/C=C/C(F)(F)COc2ccccc2)[C@H](O)C[C@@H]1O [Tafluprost]
  inhibition at 100 µM: 4.8%

## CC1(C)CCC(C)(C)c2cc(NC(=O)c3ccc(C(=O)O)cc3)ccc21 [Tamibarotene]
  inhibition at 100 µM: 1.99%

## CCOc1ccccc1OCCN[C@H](C)Cc1ccc(OC)c(S(N)(=O)=O)c1 [Tamsulosin hydrochloride]
  inhibition at 100 µM: 0%

## C=CCNC1=C2C[C@@H](C)C[C@H](OC)[C@H](O)[C@@H](C)/C=C(\C)[C@H](OC(N)=O)[C@@H](OC)/C=C\C=C(/C)C(=O)NC(=CC1=O)C2=O [Tanespimycin (17-AAG)]
  inhibition at 100 µM: 3.81%

## CCC(=O)NC[C@@H]1C[C@H]1c1cccc2c1CCO2 [Tasimelteon]
  inhibition at 100 µM: 0%

## O=C(NS(=O)(=O)c1ccc(Br)s1)c1ccc(Cl)cc1Cl [Tasisulam]
  inhibition at 100 µM: 0%

## NCCS(=O)(=O)O [Taurine]
  inhibition at 100 µM: 0%

## OB1OCc2cc(F)ccc21 [Tavaborole (AN-2690)]
  inhibition at 100 µM: 0.84%

## CCOC(=O)c1ccc(C#Cc2ccc3c(c2)C(C)(C)CCS3)nc1 [Tazarotene]
  inhibition at 100 µM: 0%

## C[C@]1(Cn2ccnn2)[C@H](C(=O)O)N2C(=O)C[C@H]2S1(=O)=O [Tazobactam]
  inhibition at 100 µM: 6.81%

## C[C@@H](O)[C@H]1C(=O)N2C(C(=O)OCOC(=O)C(C)(C)C)=C(SC3CN(C4=NCCS4)C3)[C@H](C)[C@H]12 [Tebipenem Pivoxil]
  inhibition at 100 µM: 1.32%

## Cn1nnc(-c2ccc(-c3ccc(N4C[C@H](COP(=O)(O)O)OC4=O)cc3F)cn2)n1 [Tedizolid Phosphate]
  inhibition at 100 µM: 0%

## Cn1nnc(-c2ccc(-c3ccc(N4C[C@H](CO)OC4=O)cc3F)cn2)n1 [Tedizolid]
  inhibition at 100 µM: 0%

## O=c1[nH]c(=O)n(C2CCCO2)cc1F (stereo not drawn) [Tegafur (FT-207, NSC 148958)]
  inhibition at 100 µM: 0%

## CCCCCNC(=N)N/N=C/c1c[nH]c2ccc(OC)cc12 [Tegaserod Maleate]
  inhibition at 100 µM: 1.73%

## CCC[C@H](NC(=O)[C@@H]1[C@H]2CCC[C@H]2CN1C(=O)[C@@H](NC(=O)[C@@H](NC(=O)c1cnccn1)C1CCCCC1)C(C)(C)C)C(=O)C(=O)NC1CC1 [Telaprevir (VX-950)]
  %inhibition: 0%

## Cc1cn([C@@H]2C[C@@H](O)[C@H](CO)O2)c(=O)[nH]c1=O [Telbivudine]
  inhibition at 100 µM: 0%

## CCCc1nc2c(C)cc(-c3nc4ccccc4n3C)cc2n1Cc1ccc(-c2ccccc2C(=O)O)cc1 [Telmisartan]
  inhibition at 100 µM: 27.9%

## CCOC(=O)[C@@H](N)Cc1ccc(-c2cc(O[C@H](c3ccc(Cl)cc3-n3ccc(C)n3)C(F)(F)F)nc(N)n2)cc1 [Telotristat Etiprate (LX 1606 Hippurate)]
  inhibition at 100 µM: 0%

## CCOC(=O)[C@H](CCc1ccccc1)N[C@H]1CS[C@H](c2cccs2)CN(CC(=O)O)C1=O [Temocapril HCl]
  inhibition at 100 µM: 0%

## Cn1nnc2c(C(N)=O)ncn2c1=O [Temozolomide]
  inhibition at 100 µM: 34.1%

## CO[C@H]1C[C@@H]2CC[C@@H](C)[C@@](O)(O2)C(=O)C(=O)N2CCCC[C@H]2C(=O)O[C@H]([C@H](C)C[C@@H]2CC[C@@H](OC(=O)C(C)(CO)CO)[C@H](OC)C2)CC(=O)[C@H](C)/C=C(\C)[C@@H](O)[C@@H](OC)C(=O)[C@H](C)C[C@H](C)/C=C/C=C/C=C/1C [Temsirolimus (CCI-779, NSC 683864)]
  inhibition at 100 µM: 14.6%

## Cc1cc(N2CCN([C@@H]3CN[C@H](C(=O)N4CCSC4)C3)CC2)n(-c2ccccc2)n1 [Teneligliptin hydrobromide]
  inhibition at 100 µM: 6.56%

## COc1cc([C@@H]2c3cc4c(cc3[C@@H](O[C@@H]3O[C@@H]5CO[C@@H](c6cccs6)O[C@H]5[C@H](O)[C@H]3O)[C@H]3COC(=O)[C@H]23)OCO4)cc(OC)c1O [Teniposide]
  inhibition at 100 µM: 12.8%

## CC(C)OC(=O)[C@H](C)N[P@](=O)(CO[C@H](C)Cn1cnc2c(N)ncnc21)Oc1ccccc1 [Tenofovir Alafenamide (GS-7340)]
  inhibition at 100 µM: 10.7%

## CC(C)OC(=O)OCOP(=O)(CO[C@H](C)Cn1cnc2c(N)ncnc21)OCOC(=O)OC(C)C [Tenofovir Disoproxil Fumarate]
  inhibition at 100 µM: 0%

## C[C@H](Cn1cnc2c(N)ncnc21)OCP(=O)(O)O [Tenofovir]
  inhibition at 100 µM: 0%

## CN1C(C(=O)Nc2ccccn2)=C(O)c2sccc2S1(=O)=O [Tenoxicam]
  inhibition at 100 µM: 0%

## CN1CCC(COc2cnc(-c3cccc(Cn4nc(-c5cccc(C#N)c5)ccc4=O)c3)nc2)CC1 [Tepotinib (EMD 1214063)]
  inhibition at 100 µM: 0%

## CC(=O)CC/C=C(\C)CC/C=C(\C)CC/C=C(\C)CCC=C(C)C [Teprenone]
  inhibition at 100 µM: 30.7%

## COc1cc2nc(N3CCN(C(=O)C4CCCO4)CC3)nc(N)c2cc1OC (stereo not drawn) [Terazosin HCl Dihydrate]
  %inhibition: 6.293%

## COc1cc2nc(N3CCN(C(=O)C4CCCO4)CC3)nc(N)c2cc1OC (stereo not drawn) [Terazosin HCl]
  %inhibition: 2.055%

## CN(C/C=C/C#CC(C)(C)C)Cc1cccc2ccccc12 [Terbinafine HCl]
  %inhibition: 13.33%

## CN(C/C=C/C#CC(C)(C)C)Cc1cccc2ccccc12 [Terbinafine]
  %inhibition: 49.96%

## CC(C)(C)NCC(O)c1cc(O)cc(O)c1 (stereo not drawn) [Terbutaline Sulfate]
  inhibition at 100 µM: 0%

## CC(C)(C)c1ccc(C(O)CCCN2CCC(C(O)(c3ccccc3)c3ccccc3)CC2)cc1 (stereo not drawn) [Terfenadine]
  inhibition at 100 µM: 11%

## C/C(O)=C(\C#N)C(=O)Nc1ccc(C(F)(F)F)cc1 [Teriflunomide]
  inhibition at 100 µM: 12.5%

## NCCCC[C@H](NC(=O)[C@@H]1CCCN1C(=O)[C@@H]1CSSC[C@H](NC(=O)CNC(=O)CNC(=O)CN)C(=O)N[C@@H](Cc2ccc(O)cc2)C(=O)N[C@@H](Cc2ccccc2)C(=O)N[C@@H](CCC(N)=O)C(=O)N[C@@H](CC(N)=O)C(=O)N1)C(=O)NCC(N)=O [Terlipressin Acetate] (H-GGGCYFQNCPKG-NH2; disulfide 4-9)
  inhibition at 100 µM: 0%

## CC1(O)CCC(C(C)(C)O)CC1 (stereo not drawn) [Terpin hydrate]
  inhibition at 100 µM: 0%

## CCCCCCC(=O)O[C@H]1CC[C@H]2[C@@H]3CCC4=CC(=O)CC[C@]4(C)[C@H]3CC[C@]12C [Testosterone Enanthate]
  inhibition at 100 µM: 0%

## COc1cc2c(cc1OC)[C@H]1CC(=O)[C@H](CC(C)C)CN1CC2 [Tetrabenazine (Xenazine)]
  inhibition at 100 µM: 18.7%

## CCCCNc1ccc(C(=O)OCCN(C)C)cc1 [Tetracaine HCl]
  inhibition at 100 µM: 9.17%

## CN(C)[C@@H]1C(=O)C(C(N)=O)=C(O)[C@@]2(O)C(=O)C3=C(O)c4c(O)cccc4[C@@](C)(O)[C@H]3C[C@@H]12 [Tetracycline HCl]
  inhibition at 100 µM: 22.7%

## c1ccc2c(c1)CCCC2C1=NCCN1 (stereo not drawn) [Tetrahydrozoline HCl]
  inhibition at 100 µM: 0%

## c1ccc(C2CN3CCSC3=N2)cc1 (stereo not drawn) [Tetramisole HCl]
  inhibition at 100 µM: 0%

## CC(C)(CO)c1cc2cc(NC(=O)C3(c4ccc5c(c4)OC(F)(F)O5)CC3)c(F)cc2n1C[C@@H](O)CO [Tezacaftor(VX-661)]
  inhibition at 100 µM: 16.1%

## O=C1CCC(N2C(=O)c3ccccc3C2=O)C(=O)N1 (stereo not drawn) [Thalidomide]
  inhibition at 100 µM: 14%

## c1ccc2[nH]c(-c3cscn3)nc2c1 [Thiabendazole]
  inhibition at 100 µM: 21.5%

## Cc1ncc(C[n+]2csc(CCO)c2C)c(N)n1 [Thiamine HCl (Vitamin B1)]
  inhibition at 100 µM: 0%

Source: paper doi:10.1101/2021.10.07.463234v2 (biorxiv, 2021)
